The values that follow come from PMC7866854, “Pseudo-Dipeptide Bearing α,α-Difluoromethyl Ketone Moiety as Electrophilic Warhead with Activity against Coronaviruses” (International Journal of Molecular Sciences, 2021).

For series [1], the system named is SARS-CoV-2 M^pro. The conditions noted are these: read-out: Exp. EC50; listed under SARS-CoV-2 Mpro; cited from earlier work.
Series [2] deals with Anopheles gambiae acetylcholinesterase (AgAChE). The settings on record: read-out: IC50, AgAChE inhibitor; cited from earlier work.
Series [3] deals with bovine pancreatic α-chymotrypsin. More on the design: method as in PMID 2353815, PMID 3527255. The conditions noted are these: read-out: Ki, α-chymotrypsin inhibitor; cited from earlier work.
Series [4] addresses HIV-1 protease. The arrangement: method as in doi:10.1039/c39910000110. The conditions noted are these: read-out: Ki, HIV protease inhibitor; cited from earlier work.
Series [5] relates to SARS-CoV M^pro. The conditions noted are these: read-out: IC50, SARS-CoV Mpro inhibitor; cited from earlier work.
Series [6] concerns hCoV-229E. In words: CPE-based antiviral assay (CellTiter-Glo cell viability as surrogate of CPE) in MRC5 cells infected with hCoV-229E. The conditions noted are these: Human coronavirus 229E; for EC50: read-out: EC50, inhibition of hCoV-229E replication.
Series [7] can be described thus: in vitro. The conditions noted are these: human.

Molecules are shown by their SMILES. Where two headings read alike, the source gives them in different places.

In the case of `Cc1cc(C(=O)N[C@@H](C)C(=O)N[C@H](C(=O)N[C@@H](CC(C)C)C(=O)N[C@H](/C=C\C(=O)OCc2ccccc2)C[C@@H]2CCNC2=O)C(C)C)no1` [N3], the EC50 in series [1] is 16.8 ± 1.7 µM. Take `CC(C)(C)c1cccc(C(=O)C(F)F)c1` [compound 1]: the IC50 in series [2] is 0.00605 µM. `CC(C)n1cc(C(=O)C(F)F)cn1` [compound 2]: the IC50 in series [2] is 0.802 µM. With `CC(=O)NC(CC(C)C)C(=O)NC(Cc1ccccc1)C(=O)C(F)F` (stereo not drawn) [compound 4, Ac-Leu-Phe-CHF2], the Ki in series [3] was 25 µM.

In the case of `CC(C)C(NC(=O)OCc1ccccc1)C(=O)NC(Cc1ccccc1)C(=O)C(F)(F)C(Cc1ccccc1)NC(=O)C(NC(=O)OCc1ccccc1)C(C)C` (stereo not shown) [compound 6], in series [4], the Ki is 0.0001 µM. Consider `CC(C)CC(NC(=O)OCc1ccccc1)C(=O)NC(Cc1ccccc1)C(O)(O)C(F)(F)F` (stereo not drawn) [compound 7, Z-Leu-Phe-CF3], for which, in series [5], the IC50 was 10 µM.

In the case of `CC(C)CC(NC(=O)OCc1ccccc1)C(=O)NC(CCc1ccccc1)C(O)(O)C(F)F` (stereo not shown) [compound 8, Z-Leu-Homophe-CHF2], the EC50 in series [6] (MRC5, 72 h) came out at 12.9 ± 1.22 µM. Also, the EC90 in series [6] (MRC5 cells, 100 PFU/well, 72 h p.i., CellTiter-Glo, read-out: EC90, inhibition of hCoV-229E replication) stood at 38.6 ± 0.67 µM. `CCC(CC)COC(=O)[C@H](C)N[P@](=O)(OC[C@H]1O[C@@](C#N)(c2ccc3c(N)ncnn23)[C@H](O)[C@@H]1O)Oc1ccccc1` [remdesivir]: in series [6] (MRC5 cells, 100 PFU/well, 72 h p.i., CellTiter-Glo), the EC50 stood at 0.034 ± 0.0025 µM. The molecule further gave a CC50 in series [7] of over 10 µM.
